According to article PMC10134273 (Cancer Medicine, 2023):
Like-named read-outs stand apart in the source and are kept apart here.

Experiments:
[1] = tested on: FGFR4 pathway; experiment: Exploratory biomarkers (total bile acids, C4, circulating FGF19); assay type: in vivo, human
Method: (§1) Secondary endpoints included PK parameters (e.g., maximum observed concentration [C max] and area under the concentration‐time curve [AUC]). Secondary endpoints included objective response rate (ORR), disease control rate (DCR), and duration of response (DOR) as assessed by investigator per RECIST v1.1. Tumor responses were assessed according to RECIST v1.1; computerized tomography scanning or magnetic resonance imaging was performed every 6 weeks in the first 48 weeks, and every 12 weeks thereafter. Secondary endpoints also included safety and tolerability (adverse events [AEs] as defined by the National Cancer Institute‐Common Terminology Criteria for Adverse Events CTCAE v5.0) and exploratory biomarkers (total bile acids, 7‐α‐hydroxy‐4‐cholesten‐3‐one [C4] and circulating FGF19). Safety follow‐up visit was performed within 30 days (±5 days) and 90 days (±7 days) after the last dose of the study treatment.

[2] = Phase 1 plasma pharmacokinetics of EVER4010001; assay type: in vivo, human
Source text: (§2) After a screening period of up to 28 days, eligible patients received treatment according to a standard “3+3” dose escalation design. […] Treatment continued until unacceptable toxicity, progressive disease, and/or at the discretion of the Investigator or patient's withdrawal of consent.

[3] = tested on: all other kinases (including FGFR1, FGFR2, and FGFR3); conditions: versus FGFR4; cited from earlier work
[4] = tested on: FGFR4; design: method as in PMID 32930584; conditions: kinase biochemical assays; read-out: half-maximal inhibitory concentration (IC50); cited from earlier work
[5] = tested on: triple positive HCC tumors; conditions: cited from earlier work
[6] = Method: as §1
All patients who received at least one dose of the study treatment in the Phase 1 part of the study were included in the safety and efficacy analyses. Dose escalation and MTD assessment were primarily based on DLTs which occurred within the 28‐day observation period. Descriptive statistics were used for demographics, safety, and efficacy data. The number of patients who experienced DLTs (within and outside of the 28‐day DLT assessment period) was tabulated for each dose level. The sample size of patients required for dose escalation were determined based on the ‘3+3’ design and DLTs observed as the trial progressed.

[7] = tested on: HCC or solid tumors with positive FGFR4 and KLB expression; conditions: cited from earlier work
[8] = DLT observation / MTD and RP2D determination (3+3 dose escalation); assay type: in vivo
Source text: as §2

[9] = most patients treated with 40, 60, 80, and 100 mg
[10] = Cycle 1, Day 1, 40 mg BID (N=3) + pembrolizumab
[11] = Cycle 1, Day 1, 60 mg BID (N=3) + pembrolizumab
[12] = Cycle 1, Day 1, 80 mg BID (N=6) + pembrolizumab
[13] = Cycle 1, Day 1, 100 mg BID (N=7) + pembrolizumab
[14] = Cycle 1, Day 8, 40 mg BID (N=3) + pembrolizumab
[15] = Cycle 1, Day 8, 60 mg BID (N=3) + pembrolizumab
[16] = Cycle 1, Day 8, 80 mg BID (N=6) + pembrolizumab
[17] = Cycle 1, Day 8, 100 mg BID (N=7) + pembrolizumab
[18] = 40 mg BID (N=3) + pembrolizumab
[19] = 60 mg BID (N=3) + pembrolizumab
[20] = 80 mg BID (N=6) + pembrolizumab
[21] = 100 mg BID (N=7) + pembrolizumab
[22] = CFGF401X2101 trial, Grade ≥3 TEAE

COCCNc1cc(NC(=O)N2CCCc3cc(CN4CCN(C)CC4=O)c(C=O)nc32)ncc1C#N [EVER4010001, roblitinib]
circulating FGF19 [1, 9]: elevated
plasma C4 (7-α-hydroxy-4-cholesten-3-one) [1, 9]: elevated
Geometric mean AUC0–t (geometric CV%) [2, 10]: 2363.64 (9.59) Hour·ng/ml
Mean t1/2 (SD) [2, 10]: 4.92 (0.16) Hour
Median tmax (Min, Max) [2, 10]: 0.550 (0.52, 1.05) Hour
Geometric mean AUC0–t (geometric CV%) [2, 11]: 4464.03 (37.96) Hour·ng/ml
Mean t1/2 (SD) [2, 11]: 4.00 (0.36) Hour
Median tmax (Min, Max) [2, 11]: 0.970 (0.93, 1.05) Hour
Geometric mean AUC0–t (geometric CV%) [2, 12]: 3774.38 (14.53) Hour·ng/ml
Mean t1/2 (SD) [2, 12]: 4.64 (1.44) Hour
Median tmax (Min, Max) [2, 12]: 1.030 (0.23, 2.00) Hour
Geometric mean AUC0–t (geometric CV%) [2, 13]: 5459.69 (8.34) Hour·ng/ml
Mean t1/2 (SD) [2, 13]: 4.22 (0.69) Hour
Median tmax (Min, Max) [2, 13]: 1.000 (0.52, 2.05) Hour
Geometric mean AUC0–t (geometric CV%) [2, 14]: 2084.60 (35.99) Hour·ng/ml
Mean t1/2 (SD) [2, 14]: 4.90 (2.59) Hour
Median tmax (Min, Max) [2, 14]: 1.030 (0.57, 2.00) Hour
Geometric mean AUC0–t (geometric CV%) [2, 15]: 3212.66 (27.61) Hour·ng/ml
Mean t1/2 (SD) [2, 15]: 5.78 (1.12) Hour
Median tmax (Min, Max) [2, 15]: 0.970 (0.93, 1.07) Hour
Geometric mean AUC0–t (geometric CV%) [2, 16]: 4284.35 (25.05) Hour·ng/ml
Mean t1/2 (SD) [2, 16]: 4.12 (0.90) Hour
Median tmax (Min, Max) [2, 16]: 0.990 (0.25, 1.05) Hour
Geometric mean AUC0–t (geometric CV%) [2, 17]: 6214.09 (24.13) Hour·ng/ml
Mean t1/2 (SD) [2, 17]: 4.97 (0.55) Hour
Median tmax (Min, Max) [2, 17]: 0.970 (0.50, 2.97) Hour
steady state reached ([2]; after repeated BID dosing, based on T1/2): before Cycle 1 Day 8
Cmax ([2]; human, plasma, oral, Cycle 1, Day 1, 40 mg BID (N=3) + pembrolizumab, read-out: Geometric mean Cmax (geometric CV%)): 560 ng/mL
Cmax ([2]; human, plasma, oral, Cycle 1, Day 1, 60 mg BID (N=3) + pembrolizumab, read-out: Geometric mean Cmax (geometric CV%)): 958 ng/mL
Cmax ([2]; human, plasma, oral, Cycle 1, Day 1, 80 mg BID (N=6) + pembrolizumab, read-out: Geometric mean Cmax (geometric CV%)): 897 ng/mL
Cmax ([2]; human, plasma, oral, Cycle 1, Day 1, 100 mg BID (N=7) + pembrolizumab, read-out: Geometric mean Cmax (geometric CV%)): 1340 ng/mL
Cmax ([2]; human, plasma, oral, Cycle 1, Day 8, 40 mg BID (N=3) + pembrolizumab, read-out: Geometric mean Cmax (geometric CV%)): 427 ng/mL
Cmax ([2]; human, plasma, oral, Cycle 1, Day 8, 60 mg BID (N=3) + pembrolizumab, read-out: Geometric mean Cmax (geometric CV%)): 749 ng/mL
Cmax ([2]; human, plasma, oral, Cycle 1, Day 8, 80 mg BID (N=6) + pembrolizumab, read-out: Geometric mean Cmax (geometric CV%)): 991 ng/mL
Cmax ([2]; human, plasma, oral, Cycle 1, Day 8, 100 mg BID (N=7) + pembrolizumab, read-out: Geometric mean Cmax (geometric CV%)): 1330 ng/mL
AUC(0-t) ([2]; human, plasma, oral, Cycle 1 Day 1, range across dose levels, read-out: geometric mean AUC0–t): 2360 to 5460 ng·h/mL
Cmax ([2]; human, plasma, oral, Cycle 1 Day 1, range across dose levels, read-out: geometric mean Cmax): 560 to 1340 ng/mL
AUC(0-t) ([2]; human, plasma, oral, range across 40-100 mg BID dose levels (abstract), read-out: AUC0–t): 2370 to 5480 ng·h/mL
Cmax ([2]; human, plasma, oral, range across 40-100 mg BID dose levels (abstract), read-out: maximum observed concentration (Cmax)): 606 to 1350 ng/mL
half-life ([2]; human, plasma, oral, range across 40-100 mg BID dose levels, read-out: Mean plasma terminal half-life (T1/2)): 4 to 4.92 h
Tmax ([2]; human, plasma, oral, range across 40-100 mg BID dose levels, read-out: Median time to peak concentration (Tmax)): 0.55 to 1.03 h
antitumor effect in preclinical models [5]: induced regression/stasis
Grade 5 TEAEs related to EVER4010001 and/or pembrolizumab [6, 18]: 0 n (%)
SAEs: Death [6, 18]: 0 n (%)
Grade 5 TEAEs related to EVER4010001 and/or pembrolizumab [6, 19]: 0 n (%)
SAEs: Death [6, 19]: 1 (33.3) n (%)
Grade 5 TEAEs related to EVER4010001 and/or pembrolizumab [6, 20]: 0 n (%)
SAEs: Death [6, 20]: 0 n (%)
Grade 5 TEAEs related to EVER4010001 and/or pembrolizumab [6, 21]: 0 n (%)
SAEs: Death [6, 21]: 0 n (%)
Grade 5 TEAEs related to EVER4010001 and/or pembrolizumab ([6]; Total (N=19)): 0 n (%)
SAEs: Death ([6]; Total (N=19)): 1 (5.3) n (%)
Any TEAE: Alanine aminotransferase increased ([6]; human, in vivo): 9 (47.4) n (%)
Any TEAE: Anemia ([6]; human, in vivo): 9 (47.4) n (%)
Any TEAE: Aspartate aminotransferase increased ([6]; human, in vivo): 11 (57.9) n (%)
Any TEAE: Gastrointestinal disorders ([6]; human, in vivo): 19 n (%)
EVER4010001-related TEAEs ([6]; human, in vivo): 19 (100) n (%)
EVER4010001-related TEAEs: Increased Blood Alkaline Phosphatase ([6]; human, in vivo): 5 (26.3) n (%)
SAEs: Device dislocation ([6]; human, in vivo): 1 (5.3) n (%)
SAEs: Product issues ([6]; human, in vivo): 1 (5.3) n (%)
TEAEs leading to discontinuation: Aspartate aminotransferase increased ([6]; human, in vivo): 2 [10.5%] n (%)
TEAEs leading to discontinuation: Blood bilirubin increased ([6]; human, in vivo): 1 [5.3%] n (%)
TEAEs resulting in temporary interruption of EVER4010001 ([6]; human, in vivo): 4 [21.0%] n (%)
Any TEAE: Anemia ([6]; human, in vivo, 93.4 days): 0 n (%)
Any TEAE: Diarrhea ([6]; human, in vivo, 93.4 days): 1 (5.3) n (%)
SAEs: Gastrointestinal disorders ([6]; human, in vivo, 93.4 days): 1 (5.3) n (%)
SAEs: Pancreatitis ([6]; human, in vivo, 93.4 days): 1 (5.3) n (%)
TEAEs leading to discontinuation: Aspartate aminotransferase increased ([6]; human, in vivo, 93.4 days): 2 (10.5) n (%)
TEAEs leading to discontinuation: Blood bilirubin increased ([6]; human, in vivo, 93.4 days): 1 (5.3) n (%)
TEAEs leading to discontinuation: Investigations ([6]; human, in vivo, 93.4 days): 3 (15.8) n (%)
TEAEs leading to discontinuation: Vascular disorders ([6]; human, in vivo, 93.4 days): 1 (5.3) n (%)
TEAEs resulting in temporary interruption of EVER4010001 ([6]; human, in vivo, 93.4 days): 4 (21.0) n (%)
increased ALT [7, 22]: 15.0%
increased AST [7, 22]: 18.8%
increased ALT ([7]; CFGF401X2101 trial, any grade): 43.8%
ORR ([7]; CFGF401X2101 trial): 8%
diarrhea suspected to be related to the study drug ([7]; CFGF401X2101 trial): 69%
recommended Phase 2 dose (RP2D) ([7]; QD doses 50-150 mg, fasted or unfasted patients): 120 mg QD
geometric mean Cmax (geometric coefficient of variation %) ([7]; RP2D 120 mg FGF401 QD, CFGF401X2101 trial): 1120 ng/mL
recommended Phase 2 dose (RP2D) ([7]; in combination with spartalizumab 300 mg Q3W): 120 mg QD
DLTs during whole study: Alanine aminotransferase increased ([8]; human, in vivo): 1 (5.9) n (%)
DLTs during whole study: Aspartate aminotransferase increased ([8]; human, in vivo): 2 (11.8) n (%)
Total DLTs during whole study ([8]; human, in vivo): 2 (11.8) n (%)
DLTs within 28 days: Alanine aminotransferase increased ([8]; human, in vivo, 28 days): 1 (5.9) n (%)
DLTs within 28 days: Aspartate aminotransferase increased ([8]; human, in vivo, 28 days): 2 (11.8) n (%)
Total DLTs within 28 days ([8]; human, in vivo, 28 days): 2 (11.8) n (%)
maximum tolerated dose (MTD) ([8]; in combination with pembrolizumab 200 mg Q3W): 80 mg BID
